# Reference: ChEMBL document CHEMBL1201862, “PubChem BioAssay data set” (2004)
# Values joined by “and” are separate entries in the source; they are usually repeats but may differ in a detail not shown here. Equal values may be shown once.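 Compound exposure: 48 hours, 5 concentrations, 96-well plates. GI50 marks 50% less growth.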 Active and inactive are the calls of the source. No stated cut-off is given here; in the data, active = GI50 up to about 1.1 µM and inactive = higher.
# Tests used:
# Experiment in all cases: NCI-60 cell line screen, 48 h
# 786-0 = tested on: 786-0
# CAKI-1 = tested on: CAKI-1
# HCT-15 = tested on: HCT-15
# HOP-92 = tested on: HOP-92
# K562 = tested on: K562
# M14 = tested on: M14
# MOLT-4 = tested on: MOLT-4
# NCI-H23 = tested on: NCI-H23
# NCI/ADR-RES = tested on: NCI/ADR-RES
# OVCAR-8 = tested on: OVCAR-8
# RXF 393 = tested on: RXF 393
# SF-295 = tested on: SF-295
# SK-MEL-28 = tested on: SK-MEL-28
# SK-MEL-5 = tested on: SK-MEL-5
# SNB-75 = tested on: SNB-75
# TK-10 = tested on: TK-10
# U-251 = tested on: U-251
# UACC-257 = tested on: UACC-257
SMILES,GI50 (786-0),GI50 (CAKI-1),GI50 (HCT-15),GI50 (HOP-92),GI50 (K562),GI50 (M14),GI50 (MOLT-4),GI50 (NCI-H23),GI50 (NCI/ADR-RES),GI50 (OVCAR-8),GI50 (RXF 393),GI50 (SF-295),GI50 (SK-MEL-28),GI50 (SK-MEL-5),GI50 (SNB-75),GI50 (TK-10),GI50 (U-251),GI50 (UACC-257)
O=C1N/C(=N/N=C\C(O)C(O)C(O)C(O)CO)N/C1=C/c1ccc(Cl)cc1 (configuration not stated),> 100 µM (inactive),> 100 µM (inactive),76 µM and 50.6 µM,> 100 µM (inactive),55.6 µM (inactive) and 27.7 µM (inactive),> 100 µM (inactive),46 µM (inactive) and > 10 µM (inactive),> 100 µM (inactive),> 100 µM (inactive),> 100 µM (inactive),> 100 µM (inactive),> 100 µM (inactive),> 100 µM (inactive),> 100 µM (inactive),> 100 µM (inactive),> 100 µM (inactive),> 100 µM (inactive),> 100 µM (inactive)
COc1ccc([C@]23CCN4COC[C@@H]([C@H]42)C2(CC3)OCC(C)(C)CO2)cc1OC,> 100 µM (inactive),> 100 µM (inactive),> 100 µM,31.3 µM (inactive),> 100 µM (inactive),> 100 µM (inactive),> 100 µM (inactive),> 100 µM (inactive),> 100 µM (inactive),> 100 µM (inactive),> 100 µM (inactive),> 100 µM (inactive),> 100 µM (inactive),> 100 µM (inactive),53.3 µM (inactive),> 100 µM (inactive),> 100 µM (inactive),> 100 µM (inactive)
O=C1/C(=N\n2c(S)nnc2-c2ccncc2)c2cc(Cl)ccc2N1CN1CCCCC1,27.7 µM (inactive),33.7 µM (inactive),25.4 µM,56 µM (inactive),20.5 µM (inactive),44.7 µM (inactive),12.3 µM (inactive),46.6 µM (inactive),57.5 µM (inactive),31.8 µM (inactive),15.8 µM (inactive),94 µM (inactive),65.3 µM (inactive),48.6 µM (inactive),34.3 µM (inactive),30.3 µM (inactive),40.4 µM (inactive),23.4 µM (inactive)
O=[N+]([O-])CC(SCc1ccccc1)c1ccc2c(c1)OCO2 (configuration not stated),1.68 µM (inactive),14.2 µM (inactive),3.84 µM,3.79 µM (inactive),1.55 µM (inactive),5.6 µM (inactive),3.37 µM (inactive),7.19 µM (inactive),9.57 µM (inactive),8.49 µM (inactive),1.82 µM (inactive),7.76 µM (inactive),5.82 µM (inactive),12.2 µM (inactive),15.1 µM (inactive),10.8 µM (inactive),6.59 µM (inactive),6.79 µM (inactive)
c1ccc2c(c1)nc1n2CCSC1,> 100 µM (inactive),> 100 µM (inactive),> 100 µM,> 100 µM (inactive),> 100 µM (inactive),> 100 µM (inactive),> 100 µM (inactive),> 100 µM (inactive),> 100 µM (inactive),–,> 100 µM (inactive),> 100 µM (inactive),> 100 µM (inactive),> 100 µM (inactive),> 100 µM (inactive),> 100 µM (inactive),> 100 µM (inactive),> 100 µM (inactive)
CN1CN(c2ccccc2)C2(CCN(CCCC3(c4cccs4)OCCO3)CC2)C1=O,> 100 µM (inactive),> 100 µM (inactive),> 100 µM,28.7 µM (inactive),> 100 µM (inactive),96.8 µM (inactive),> 100 µM (inactive),77.6 µM (inactive),> 100 µM (inactive),> 100 µM (inactive),> 100 µM (inactive),> 100 µM (inactive),> 100 µM (inactive),91 µM (inactive),88.7 µM (inactive),> 100 µM (inactive),> 100 µM (inactive),> 100 µM (inactive)
CCOC(=O)n1cncc1CC(NC(=O)Cc1c(C(=O)C=C(C)C)[nH]c2ccccc12)C(=O)OC (configuration not stated),21.5 µM (inactive),17.9 µM (inactive),19.1 µM,12 µM (inactive),33.7 µM (inactive),15.6 µM (inactive),20 µM (inactive),25.4 µM (inactive),33.4 µM (inactive),18.5 µM (inactive),14.1 µM (inactive),17.7 µM (inactive),16 µM (inactive),18 µM (inactive),22.9 µM (inactive),18.2 µM (inactive),19.5 µM (inactive),13.3 µM (inactive)
Cc1ccc(NC(=O)/C(Cc2cc(=O)oc3cc(O)ccc23)=N\NC(=O)C[N+](C)(C)C)cc1C,> 100 µM (inactive),> 100 µM (inactive),> 100 µM,> 100 µM (inactive),> 100 µM (inactive),> 100 µM (inactive),> 100 µM (inactive),> 100 µM (inactive),> 100 µM (inactive),> 100 µM (inactive),66.2 µM (inactive),> 100 µM (inactive),> 100 µM (inactive),> 100 µM (inactive),> 100 µM (inactive),> 100 µM (inactive),> 100 µM (inactive),> 100 µM (inactive)
CC(C)=CCNc1nc(Cl)nc2[nH]cnc12,49.4 µM (inactive),> 100 µM (inactive),–,35 µM (inactive),32.1 µM (inactive),> 100 µM (inactive),84.9 µM (inactive),56.6 µM (inactive),35.7 µM (inactive),46.5 µM (inactive),25.2 µM (inactive),42.6 µM (inactive),> 100 µM (inactive),29.3 µM (inactive),> 100 µM (inactive),71.6 µM (inactive),–,27.1 µM (inactive)
C=CCCCCNC(=O)C[C@@H]1C2=C(CC[C@H]1O[Si](C)(C)C(C)(C)C)N1C(=O)CCC/C=C\C1C2 (some centres not stated),15.4 µM (inactive),12.4 µM (inactive),14 µM,11 µM (inactive),5.3 µM (inactive),14.3 µM (inactive),5.89 µM (inactive),13.7 µM (inactive),12.2 µM (inactive),14.9 µM (inactive),10.8 µM (inactive),14.9 µM (inactive),15 µM (inactive),14.1 µM (inactive),16.4 µM (inactive),16.1 µM (inactive),13.5 µM (inactive),13.1 µM (inactive)
Clc1ccccc1CN1COc2c(cc(Cl)c3cccnc23)C1,4.39 µM (inactive),4.49 µM (inactive),0.165 µM,3.18 µM (inactive),2.99 µM (inactive),3.77 µM (inactive),0.28 µM (active),3.38 µM (inactive),0.224 µM (active),2.85 µM (inactive),13.7 µM (inactive),1.85 µM (inactive),6.27 µM (inactive),1.38 µM (inactive),5.68 µM (inactive),3.44 µM (inactive),3.33 µM (inactive),3.43 µM (inactive)
CCOC(=O)CC1C(O)C(=O)N(C)C1c1ccccc1 (configuration not stated),> 100 µM (inactive),> 100 µM (inactive),> 100 µM,> 100 µM (inactive),> 100 µM (inactive),> 100 µM (inactive),> 100 µM (inactive),> 100 µM (inactive),> 100 µM (inactive),> 100 µM (inactive),> 100 µM (inactive),> 100 µM (inactive),> 100 µM (inactive),> 100 µM (inactive),> 100 µM (inactive),> 100 µM (inactive),> 100 µM (inactive),> 100 µM (inactive)
c1ccc2sc(C3(N4CCC5(CC4)OCCO5)CCCCC3)cc2c1,99.1 µM (inactive),> 100 µM (inactive),> 100 µM,25.8 µM (inactive),> 100 µM (inactive),61.1 µM (inactive),29.2 µM (inactive),> 100 µM (inactive),> 100 µM (inactive),> 100 µM (inactive),> 100 µM (inactive),> 100 µM (inactive),> 100 µM (inactive),50.5 µM (inactive),56.4 µM (inactive),90.6 µM (inactive),–,60.1 µM (inactive)
CC(=O)OCC1OC(N2C(S)=C(C#N)C(c3ccco3)C(C(C)=O)=C2c2ccccc2)C(OC(C)=O)C(OC(C)=O)C1OC(C)=O (configuration not stated),29.3 µM (inactive),40.9 µM (inactive),> 100 µM,32.9 µM (inactive),> 100 µM (inactive),94.6 µM (inactive),> 100 µM (inactive),64.4 µM (inactive),> 100 µM (inactive),61 µM (inactive),> 100 µM (inactive),23.4 µM (inactive),30.1 µM (inactive),29 µM (inactive),8.49 µM (inactive),> 100 µM (inactive),39.3 µM (inactive),> 100 µM (inactive)
O=C1CCc2nc3ncccc3cc2C1,> 100 µM (inactive),> 100 µM (inactive),96.4 µM,> 100 µM (inactive),29.2 µM (inactive),> 100 µM (inactive),29.9 µM (inactive),> 100 µM (inactive),> 100 µM (inactive),–,> 100 µM (inactive),> 100 µM (inactive),> 100 µM (inactive),> 100 µM (inactive),> 100 µM (inactive),> 100 µM (inactive),–,> 100 µM (inactive)
c1ccc(CN2CCC(=NN3CCCCC3)CC2)cc1,> 100 µM (inactive),> 100 µM (inactive),> 100 µM,16.2 µM (inactive),31.1 µM (inactive),> 100 µM (inactive),39.4 µM (inactive),78.2 µM (inactive),> 100 µM (inactive),65.2 µM (inactive),35.1 µM (inactive),> 100 µM (inactive),> 100 µM (inactive),30.3 µM (inactive),61.2 µM (inactive),86.7 µM (inactive),59.6 µM (inactive),47.1 µM (inactive)
